Assay results as given in patent publication US9381143B2, “Use of substituted methoxyalkoxyphenylalkyl derivatives as preservative, preserving method, compounds and composition” (L'OREAL, priority 2010, dated 2016).

Columns and labels:
Test in all cases: Challenge Test (artificial contamination) of cosmetic formula
Format in all cases: cell-based
[1] = system: Aspergillus niger (An) ATCC 6275; details: 2% compound in cosmetic formula, inoculum approx. 10^6 CFU/g
Protocol: (§1) The antimicrobial efficacy of a compound of formula (I) was evaluated by the Challenge Test or artificial contamination method.
(§2) The challenge test method consists of an artificial contamination of the sample with microbial strains from collection (bacteria, yeasts and moulds) and of an evaluation of the number of revivable microorganisms seven days after inoculation.
(§3) 5 pure cultures of microorganisms are used.
(§4) The gram−bacterial strains (Escherichia coli and Pseudomonas aeruginosa), the gram+bacterial strain (Enterococcus faecalis), the yeast strain (Candida albicans), and the mould strain (Aspergillus niger) are inoculated into subculturing medium, respectively the day before inoculation for the bacteria and the yeast, and 5 days before inoculation for the mould.
(§5) On the day of inoculation: • a suspension in tryptone salt diluent is prepared respectively for the bacteria and the yeast in such a way as to obtain, on a spectrophotometer, a suspension having an optical density between 35% and 45% of transmitted light at 544 nm; • for the mould, the spores are taken by washing the agar with 6 to 7 ml of harvesting solution and the suspension is recovered in a sterile flask or tube.
(§6) After having homogenized the microbial suspension, 0.2 ml of inoculum (the suspensions are used pure: between 1×10^8 and 3×10^8 CFU per ml) are placed in each pill bottle and the microbial suspension is completely homogenized in the 20 g of product (=cosmetic formula) using a spatula.
(§7) The amount of microorganisms present in the product corresponds, after homogenization, to a concentration of 10^6 microorganisms per gram of product, i.e. the inoculation at 1% of an inoculum containing 10^8 microorganisms per ml. After 7 or 14 days of contact time between the microorganisms and the product at 22° C.±2° C. and in the dark, ten-fold dilutions are carried out and the number of revivable microorganisms remaining in the product is counted.

[2] = system: Candida albicans (Ca) ATCC 10231; details: 2% compound in cosmetic formula; inoculum approx. 10^6 CFU/g; 7 days at 22° C. in the dark; <200 CFU = sensitivity threshold
Protocol: as §1, §2, §3, §4, §5, §6, §7

[3] = system: Enterococcus faecalis (Ef) ATCC 33186; details: 2% compound in cosmetic formula, inoculum approx. 10^6 CFU/g
Protocol: as §1, §2, §3, §4, §5, §6, §7

[4] = system: Escherichia coli (Ec) ATCC 8739; details: 2% compound in cosmetic formula; inoculum approx. 10^6 CFU/g; 7 days at 22° C. in the dark; <200 CFU = sensitivity threshold
Protocol: as §1, §2, §3, §4, §5, §6, §7

[5] = system: Pseudomonas aeruginosa (Pa) ATCC 19429; details: 2% compound in cosmetic formula; inoculum approx. 10^6 CFU/g; 7 days at 22° C. in the dark; <200 CFU = sensitivity threshold
Protocol: as §1, §2, §3, §4, §5, §6, §7

COc1ccc(CCC(C)=O)cc1OC
Number of CFU/gram of product at T = 7 days, A. niger ([1]; 7 days at 22° C. in the dark): 1.4 · 10^6 CFU/gram of product
Number of CFU/gram of product at T = 14 days, A. niger ([1]; 14 days at 22° C. in the dark): 3.6 · 10^5 CFU/gram of product
Number of CFU/gram of product at T = 7 days, C. albicans [2]: <200 CFU/gram of product
Number of CFU/gram of product at T = 7 days, E. faecalis ([3]; 7 days at 22° C. in the dark): 7.3 · 10^5 CFU/gram of product
Number of CFU/gram of product at T = 14 days, E. faecalis ([3]; 14 days at 22° C. in the dark): 3.3 · 10^8 CFU/gram of product
Number of CFU/gram of product at T = 7 days, E. coli [4]: <200 CFU/gram of product
Number of CFU/gram of product at T = 7 days, P. aeruginosa [5]: <200 CFU/gram of product
